# Measured values from patent US7317125B2 (Hoffman-La Roche Inc., priority 2005, dated 2008).
# Target: T1, DGAT1 (Homo sapiens, UniProt O75907)
# T1 construct: expressed in transfected cells; host or cells: CHOK1
# T1 sequence (O75907 1-488): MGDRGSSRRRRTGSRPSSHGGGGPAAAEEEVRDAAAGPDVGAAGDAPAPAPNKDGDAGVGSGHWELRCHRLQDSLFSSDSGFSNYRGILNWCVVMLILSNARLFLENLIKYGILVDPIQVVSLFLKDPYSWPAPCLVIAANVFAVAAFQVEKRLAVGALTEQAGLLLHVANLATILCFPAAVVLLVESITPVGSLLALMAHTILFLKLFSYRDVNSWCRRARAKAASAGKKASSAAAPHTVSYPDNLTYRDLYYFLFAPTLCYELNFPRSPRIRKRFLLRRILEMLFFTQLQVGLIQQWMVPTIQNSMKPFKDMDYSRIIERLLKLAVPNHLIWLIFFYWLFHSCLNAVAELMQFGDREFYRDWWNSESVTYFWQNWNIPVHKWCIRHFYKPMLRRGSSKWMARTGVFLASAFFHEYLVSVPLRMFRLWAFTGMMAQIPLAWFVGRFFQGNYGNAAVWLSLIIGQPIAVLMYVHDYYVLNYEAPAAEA
# Assay: DGAT CHOK1 Cell Assay
# Format: cell-based
# Conditions: CHOK1 cells transfected with DGAT1, 14C palmitic acid, 1 hour at 37° C., triglyceride by TLC
# Source text: Materials for the assay were: petroleum ether (J. T. Baker #9268-22); diethyl ether (Aldrich #30995-8); acetic acid; 1,2-dioleoyl-3-palmitoyl-glycerol (Sigma D-1782); ^[…] Palmitic Acid (56.0 mCi/mmol PerkinElmer Life Sciences # NEC 075H); DMEM/F12 (Gibco #11330-032); fetal bovine serum; L-Glutamine; G418/ml media; DMEM High Glucose (Gibco #11995-065); BSA Fraction V Fatty Acid Free (Roche #100 377); 20×°cm silica gel 60 glass plates (EM Science Plates #5721/7).
# CHOK1/DGAT cell culture medium was prepared with DMEM/F12 (Gibco #11330-032), […], and 20 ul G418/ml media. 1,2-dioleoyl-3-palmitoyl-glycerol was prepared by dissolving 10 mg into 1 ml chloroform and stored at −20° C. in 100 μl aliquots. Test compounds were prepared as 10 mM stock solutions in DMSO and store at −20° C. before use. Test dilutions were prepared by five fold serial dilutions over final concentrations.
# CHOK1 cells transfected with DGAT1 were diluted in 6 well plates at 2.5×10^5 cells per well and cultured overnight. Cells were then washed twice with PBS. Test compound solutions (10 μl/2 ml media aliquots) in DMEM High Glucose with 0.01% BSA (fatty acid free) were added to cell culture plates at 800 μl per well. ^14C Palmitic acid (0.5 μCi, 5 μl) was added to each well. The plates were incubated for 1 hour at 37° C. After the incubation period, the plates were placed on ice, cells were scraped into media and transferred to microfuge tubes. 400 μl chloroform:methanol (2:1) was added to each tube. Each tube was briefly vortexed by hand, then mechanically vortexed for 10 minutes. Each tube was then centrifuged at 14,000 RPM for 10 minutes at 4° C. and the bottom layer removed and transferred to a new microfuge tube.
# Extracted samples were spotted onto TLC plates at 20 μl per lane. The TLC plates were eluted with a solvent mixture of petroleum ether, diethyl ether and acetic acid (80:20:1) and air dried. Trigylceride (TG) spots were visualized by placing in an iodine chamber for several minutes. 1 μl of ^14C palmitic acid (diluted 1:10 in 100% EtOH) was spotted on the TG standard lane (at TG level) as a reference. The TLC plates were wrapped in plastic wrap and placed in a phosphorimager cassette for scanning.
# The EC50 values for those compounds tested in this Example were generated using an Excel template, the results of which are shown in Table II: […]
row,SMILES,EC50 [nM]
1,"CC(C)N(NC(=O)c1ccoc1)C(=O)COc1ccc(F)cc1-c1ccccc1OC(F)(F)F [Example 37, furan-3-carboxylic acid N′-[2-(5-fluoro-2′-trifluoromethoxy-biphenyl-2-yloxy)-acetyl]-N′-isopropyl-hydrazide]",11100
2,"COc1ccc(-c2ccccc2SCC(=O)N(NC(=O)c2ccccc2)C(C)C)cc1 [Example 55, benzoic acid N′-[2-(4′-methoxy-biphenyl-2-ylsulfanyl)-acetyl]-N′-isopropyl-hydrazide]",2300
3,"CC(C)N(NC(=O)c1ccccc1)C(=O)CSc1ccccc1-c1ccccc1F [Example 54, benzoic acid N′-[2-(2′-fluoro-biphenyl-2-ylsulfanyl)-acetyl]-N′-isopropyl-hydrazide]",1430
4,"CSc1ccccc1-c1cc(F)ccc1OCC(=O)N(NC(=O)c1ccccc1)C(C)C [Example 13, benzoic acid N′-[2-(5-fluoro-2′-methylsylfanyl-biphenyl-2-yloxy)-acetyl]-N′-isopropyl-hydrazide]",310
5,"CC(C)c1cccc(-c2cc(F)ccc2OCC(=O)N(NC(=O)c2ccccc2)C(C)C)c1 [Example 12, benzoic acid N′-[2-(5-fluoro-3′-isopropyl-biphenyl-2-yloxy)-acetyl]-N′-isopropyl-hydrazide]",1010
6,"CC(C)N(NC(=O)c1ccccc1)C(=O)CSc1ccccc1-c1cccc(F)c1 [Example 48, benzoic acid N′-[2-(3′-fluoro-biphenyl-2-ylsulfanyl)-acetyl]-N′-isopropyl-hydrazide]",3400
7,"CCc1ccccc1-c1cc(F)cc(F)c1OCC(=O)N(NC(=O)c1ccccc1)C(C)C [Example 28, benzoic acid N′-[2-(2′-ethyl-3,5-difluoro-biphenyl-2-yloxy)-acetyl]-N′-isopropyl-hydrazide]",296
8,"CC(C)N(NC(=O)c1ccccc1)C(=O)COc1ccc(F)cc1-c1ccccc1F [Example 5, benzoic acid N′-[2-(5,2′-difluoro-biphenyl-2-yloxy)-acetyl]-N′-isopropyl-hydrazide]",2210
9,"CC(C)N(NC(=O)c1ccccc1)C(=O)COc1ccc(F)cc1-c1ccccc1[N+](=O)[O-] [Example 14, benzoic acid N′-[2-(5-fluoro-2′-nitro-biphenyl-2-yloxy)-acetyl]-N′-isopropyl-hydrazide]",230
10,"CC(C)N(NC(=O)c1ccccc1)C(=O)COc1ccc(F)cc1-c1ccc(F)cc1 [Example 1, benzoic acid N′-[2-(5,4′-difluoro-biphenyl-2-yloxy)-acetyl]-N′-isopropyl-hydrazide]",8300
11,"Cc1cccc(-c2cc(F)ccc2OCC(=O)N(NC(=O)c2ccccc2)C(C)C)c1C [Example 19, benzoic acid N′-[2-(2′,3′-dimethyl-5-fluoro-biphenyl-2-yloxy)-acetyl]-N′-isopropyl-hydrazide]",1300
12,Cc1ccc(OCC(=O)N(NC(=O)c2ccccc2)C(C)C)c(-c2ccccc2OC(F)(F)F)c1 [Example 31],776
13,"Cc1cccc(-c2ccccc2SCC(=O)N(NC(=O)c2ccccc2)C(C)C)c1C [Example 49, benzoic acid N′-[2-(2′,3′-dimethyl-biphenyl-2-ylsulfanyl)-acetyl]-N′-isopropyl-hydrazide]",5670
14,"CC(C)N(NC(=O)c1ccccc1)C(=O)COc1ccc(F)cc1-c1ccc(F)cc1F [Example 24, benzoic acid N′-[2-(5,2′,4′-trifluoro-biphenyl-2-yloxy)-acetyl]-N′-isopropyl-hydrazide]",2930
15,"CC(C)N(NC(=O)C1CCSCC1)C(=O)COc1ccc(F)cc1-c1ccccc1OC(F)(F)F [Example 41, tetrahydro-thiopyran-4-carboxylic acid N′-[2-(5-fluoro-2′-trifluoromethoxy-biphenyl-2-yloxy)-acetyl]-N′-isopropyl hydrazide]",774
16,"COc1ccccc1-c1ccccc1SCC(=O)N(NC(=O)c1ccccc1)C(C)C [Example 53, benzoic acid N′-[2-(2′-methoxy-biphenyl-2-ylsulfanyl)-acetyl]-N′-isopropyl-hydrazide]",6700
17,"CCCOc1ccccc1-c1cc(F)ccc1OCC(=O)N(NC(=O)c1ccccc1)C(C)C [Example 17, benzoic acid N′-[2-(5-fluoro-2′-propoxy-biphenyl-2-yloxy)-acetyl]-N′-isopropyl-hydrazide]",2170
